Legend:
[1] = system: acetyl-histone H3; assay: Western blot, acetylation of histone H3 in Hela cells; assay type: cell-based, human; settings: 5 μM, reference drug
Method: (§1) Afterwards, the Hela cells were collected using centrifugation, and were then lysed by the lysate, which were carried out further centrifugation at 12,000 rpm for 30 min. The protein of supernatant obtained by centrifugation was quantified using the BCA kit (Beijing Solarbio Science & Technology Co., Ltd.), and the protein extracts were mixed with the SDS-PAGE protein loading buffer (Beijing Solarbio Science & Technology Co., Ltd.), which were subject to 100°C water bath for 10 min to sufficiently denaturate. The gel was gelatinized using the SDS Gel Kit (Beijing Solarbio Science & Technology Co., Ltd.) and protein extracts were separated by protein SDS-polyacrylamide gel electrophoresis and then transferred to Immobilon-NC Membrane (Beijing Solarbio Science & Technology Co., Ltd.). After the blocking with 5% non-fat dried milk in TBS for 90 min at room temperature, the membranes were incubated overnight with specific primary antibodies (AFFINITY BIOSCIENCE) at 4°C, which were further incubated with secondary antibodies for 2 h after washing three times with TBST. The chemiluminescence analysis system was applied to label the target protein with a specific primary antibody and the target protein was detected using a specific antibody.

[2] = system: acetyl-α-tubulin; assay: Western blot, acetylation of α-tubulin in Hela cells; assay type: cell-based, human; settings: 5 μM, reference drug
Method: as §1

[3] = system: MCF-7; assay: MTT anti-proliferative assay, MCF-7; settings: Homo sapiens, MCF7, 48 h, read-out: IC50 MCF-7
Method: (§2) The antitumor bioactivities of the tittle compounds in vitro were firstly evaluated against four different human tumor cell lines [breast lung cancer (A549), cervical cancer (Hela), liver cancer (HepG2), breast cancer (MCF-7)] via MTT assay, and a normal cell line [human lung fibroblast (WI-38)] was applied to assess the safety of the synthesized compounds. […] In this study, the tested compounds were diluted to the required concentration with culture medium, and growth inhibitory effects against the cell lines of the tittle compounds were determined by MTT colorimetric assay. […] The microplate reader was adopted to record the absorbance at 490 nm for each well of the plates.

[4] = system: WI-38; assay: MTT cytotoxicity assay, normal cell line WI-38; settings: Homo sapiens, WI-38, 48 h, read-out: IC50 WI-38
Method: as §2

[5] = system: A549; assay: MTT anti-proliferative assay, A549; settings: Homo sapiens, A549, 48 h, read-out: IC50 A549
Method: as §2

[6] = system: Hela; assay: MTT anti-proliferative assay, Hela; settings: Homo sapiens, 48 h, read-out: IC50 Hela
Method: as §2

[7] = system: HepG2; assay: MTT anti-proliferative assay, HepG2; settings: Homo sapiens, HepG2, 48 h, read-out: IC50 HepG2
Method: as §2

Structure (SMILES)	melting point [°C]	IC50 [3] [µM]	IC50 [5] [µM]	IC50 [6] [µM]	IC50 [7] [µM]	acetylation level of histone H3 [1]	acetylation level of α-Tubulin [2]	IC50 [4] [µM]
O=C(CCCCCCC(=O)Nc1ccccc1)NO [SAHA, suberoylanilide hydroxamic acid, reference compound]						up-regulated	increase	
CC(O)CNC(=O)CCCCCNC(=O)c1ccc(F)cc1 (centres unmarked) [a1, 4-fluoro-N-(6-((2-hydroxypropyl)amino)-6-oxohexyl) benzamide]	99.3 to 100.8							
CC(O)CNC(=O)CCCCCNC(=O)c1ccccc1Cl (centres unmarked) [a3, 2-chloro-N-(6-((2-hydroxypropyl)amino)-6-oxohexyl) benzamide]	110.2 to 113.6							
CC(O)CNC(=O)CCCCCNC(=O)c1ccc(Br)cc1 (centres unmarked) [a4, 4-bromo-N-(6-((2-hydroxypropyl)amino)-6-oxohexyl) benzamide]	112.4 to 114.7							
CC(O)CNC(=O)CCCCCNC(=O)c1ccc(I)cc1 (centres unmarked) [a5, N-(6-((2-hydroxypropyl)amino)-6-oxohexyl)-4-iodobenzamide]	148.7 to 150.2	63.2 ± 4.32	45.6 ± 2.81	35.8 ± 2.43	68.9 ± 1.95			158 ± 3.16
Cc1ccc(C(=O)NCCCCCC(=O)NCC(C)O)cc1 (centres unmarked) [a6, N-(6-((2-hydroxypropyl)amino)-6-oxohexyl)-4-methylbenzamide]	114.2 to 116.8	44.8 ± 2.01	39.2 ± 3.88	19.6 ± 3.92	74.9 ± 2.05			97.2 ± 6.36
CC(O)CNC(=O)CCCCCNC(=O)c1ccc([N+](=O)[O-])cc1 (centres unmarked) [a7, N-(6-((2-hydroxypropyl)amino)-6-oxohexyl)-4-nitrobenzamide]	124.3 to 126.1	58.7 ± 3.86	43.8 ± 4.82	25.8 ± 8.93	88.3 ± 8.64			211 ± 4.32
CC(O)CNC(=O)CCCCCNC(=O)c1ccc(C(F)(F)F)cc1 (centres unmarked) [a9, N-(6-((2-hydroxypropyl)amino)-6-oxohexyl)-4-(trifluoromethyl) benzamide]	106.3 to 108.1							
CC(O)CNC(=O)CCCCCNC(=O)c1ccc(-c2ccccc2)cc1 (centres unmarked) [a10, N-(6-((2-hydroxypropyl)amino)-6-oxohexyl)-[1, 1’-biphenyl]-4-carboxamide]	140.3 to 142.6	48.4 ± 2.21	19.8 ± 2.11	38.4 ± 1.01	26.8 ± 3.22			126 ± 7.83
CC(O)CNC(=O)CCCCCNC(=O)c1ccc2ccccc2c1 (centres unmarked) [a11, N-(6-((2-hydroxypropyl)amino)-6-oxohexyl)-2-naphthamide]	111.6 to 113.6	38.4 ± 2.12	26.6 ± 2.81	21.8 ± 2.42	29.2 ± 3.22			109 ± 4.63
CC(O)CNC(=O)CCCCCNC(=O)c1ccc2c(c1)OCO2 (centres unmarked) [a12, N-(6-((2-hydroxypropyl)amino)-6-oxohexyl) benzo [d][1,3] dioxole-5-carboxamide]	123.6 to 125.3	44.6 ± 4.62	28.4 ± 2.01	35.6 ± 0.89	37.6 ± 2.89			147 ± 3.82
Cc1cc(C)cc(C(=O)NCCCCCC(=O)NCCO)c1 [b7, N-(6-((2-hydroxyethyl)amino)-6-oxohexyl)-3,5-dimethylbenzamide]	110.1 to 111.8	83.6 ± 23.2	32.3 ± 3.13	96.8 ± 2.09	88 ± 9.39			184 ± 7.16
O=C(CCCCCNC(=O)c1ccc2c(c1)OCO2)NCCO [b10, N-(6-((2-hydroxyethyl)amino)-6-oxohexyl) benzo[d][1,3] dioxole-5-carboxamide]	94.5 to 96.7	93.2 ± 3.53	28.2 ± 0.87	38.1 ± 1.28	33.9 ± 2.71			193 ± 6.53

Second part, led by results:

melting point [°C]	IC50 [3] [µM]	IC50 [5] [µM]	IC50 [6] [µM]	IC50 [7] [µM]	Structure (SMILES)	acetylation level of histone H3 [1]	acetylation level of α-Tubulin [2]	IC50 [4] [µM]
93.9 to 95.7					CC(O)CNC(=O)CCCCCNC(=O)c1ccc(Cl)cc1 (centres unmarked) [a2, 4-chloro-N-(6-((2-hydroxypropyl)amino)-6-oxohexyl) benzamide]			
111.2 to 114.5	94.3 ± 15.3	33.1 ± 0.96	90.4 ± 2.21	84.5 ± 1.33	O=C(CCCCCNC(=O)c1ccccc1)NCCO [b1, N-(6-((2-hydroxyethyl)amino)-6-oxohexyl) benzamide]			194 ± 5.32
131.2 to 132.9					O=C(CCCCCNC(=O)c1ccc(F)cc1)NCCO [b2, 4-fluoro-N-(6-((2-hydroxyethyl)amino)-6-oxohexyl) benzamide]			
112.4 to 115.9					O=C(CCCCCNC(=O)c1ccc(Cl)cc1)NCCO [b3, 4-chloro-N-(6-((2-hydroxyethyl)amino)-6-oxohexyl) benzamide]			
115.7 to 118.7					O=C(CCCCCNC(=O)c1ccc(Br)cc1)NCCO [b4, 4-bromo-N-(6-((2-hydroxyethyl)amino)-6-oxohexyl) benzamide]			
150.4 to 150.9	64.5 ± 11.1	48.3 ± 0.92	61 ± 5.31	90.3 ± 8.18	O=C(CCCCCNC(=O)c1ccc(I)cc1)NCCO [b5, N-(6-((2-hydroxyethyl)amino)-6-oxohexyl)-4-iodobenzamide]			130 ± 5.02
	99.2 ± 1.9	26.9 ± 4.79	59.7 ± 2.67	77.2 ± 4.43	Cc1ccc(C(=O)NCCCCCC(=O)NCCO)cc1 [b6, N-(6-((2-hydroxyethyl)amino)-6-oxohexyl)-4-methylbenzamide]			144 ± 8.05
105 to 106.3					O=C(CCCCCNC(=O)c1ccc(C(F)(F)F)cc1)NCCO [b9, N-(6-((2-hydroxyethyl)amino)-6-oxohexyl)-4-(trifluoromethyl) benzamide]			
120.4 to 122.3					CN(C)c1ccc(C(=O)NCCCCCC(=O)NCCO)cc1 [b11, 4-(dimethylamino)-N-(6-((2-hydroxyethyl)amino)-6-oxohexyl) benzamide]			
115.1 to 117.8	98.7 ± 7.67	33.4 ± 2.12	76.4 ± 6.78	37.6 ± 6.14	O=C(CCCCCNC(=O)c1ccc2ccccc2c1)NCCO [b12, N-(6-((2-hydroxyethyl)amino)-6-oxohexyl)-2-naphthamide]			161 ± 8.64

From publication PMC7174758, “Synthesis and Biological Evaluation of HDAC Inhibitors With a Novel Zinc Binding Group” (Frontiers in Chemistry, 2020)
